From US11639343B2, “Compounds targeting and degrading BCR-ABL protein and its antitumor application” (ShanghaiTech University, priority 2019, dated 2023)

Assays:
[1] = tested on: K562 (BCR-ABL+) cells; assay: CCK-8 proliferation inhibition, K562 cells; type: cell-based, human; conditions: Homo sapiens, K562, 48 h, CCK-8, 48 hours of drug treatment; read-out: Proliferative inhibitory activity (IC50, nM) K562 (BCR-ABL+);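 further: Ten-point threefold dilution series starting at 10 µM, absorbance at 450 nm after 2 h with CCK-8, DMSO as negative control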
[2] = tested on: U937 (BCR-ABL-) cells; assay: CCK-8 proliferation inhibition, U937 cells; type: cell-based, human; conditions: Homo sapiens, U-937; CCK-8, 48 hours of drug treatment, highest concentration 10 μM; read-out: Proliferative inhibitory activity (IC50, nM) U937 (BCR-ABL-);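 further: Ten-point threefold dilution series, absorbance at 450 nm after 2 h with CCK-8 reagent, DMSO as negative control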
[3] = tested on: HEK293 (BCR-ABL-) cells; assay: CCK-8 proliferation inhibition, HEK293 cells; conditions: Homo sapiens, HEK293, 48 h, read-out: Proliferative inhibitory activity (IC50, nM) HEK293 (BCR-ABL-);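 further: Ten-point threefold dilution series starting at 10 µM, CCK-8 absorbance at 450 nm read after 2 h reagent incubation, DMSO-treated cells as negative control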
[4] = molecular target: c-ABL protein (Homo sapiens, UniProt P00519); assay: Western blot degradation of c-ABL in K562 cells; type: cell-based; set-up: Western blot was used to detect the expression of BCR-ABL and c-ABL protein in K562 cells; endogenous in cells; host or cells: K562; conditions: 16 hours, 1 nM-10 μM
Procedure: (§1) (1) Cell seed: K562 cells were added to the 24 well plates, with a cell density of 3×10^5/ml and a total volume of 1.5 ml; Five concentration gradients, 1 nm, 10 nm, 100 nm, 1 μM, and 10 μM, were respectively set for PROTAD series compounds and comparative examples compounds (Dasa-6-2-2-6-VHL, Dasa-6-2-6-CRBN). […] After 16 hours of drug treatment, the cells were collected in 1.5 ml ep tube, centrifuged at 3000 rpm for 3 minutes, and then added 30 μL PBS and 30 ul 2×SDS to cell precipitated, lysate Heat at 100° C. for 5 minutes, then place on ice for 5 minutes, centrifuged at 10000 rpm for 5 minutes, and take the supernatant as the total protein extracted. The protein concentration was determined by the Bradford method. After each sample was at the same concentration, bromophenol blue was added as the sample indicator.
(§2) (2) Electrophoresis: the starting voltage of the BioRad electrophoresis instrument was 80V, and as the dye enters the separation gel, the voltage was adjusted to 120V;
(§3) (3) Film transfer: prepare filter paper and nitrocellulose membrane with the corresponding size of the gel, filter paper, and NC film were soaked in transfer electrophoresis buffer.
(§4) DC50 (concentration required to degrade protein by half) were calculated based on the intensity from western blot, and data were analyzed via Prism GraphPad with non-linear regression.

[5] = molecular target: BCR-ABL protein (Homo sapiens, UniProt P00519); assay: Western blot degradation of BCR-ABL in K562 cells; type: cell-based; set-up: Western blot was used to detect the expression of BCR-ABL and c-ABL protein in K562 cells; BCR (fusion partner, P11274); endogenous in cells; host or cells: K562; the other entry of the earlier key: BCR (P11274, Breakpoint cluster region protein); conditions: 16 hours, 1 nM-10 μM
Procedure: as §1, §2, §3, §4

BCR-ABL protein, sequence (P00519 with tags, fused parts or gaps): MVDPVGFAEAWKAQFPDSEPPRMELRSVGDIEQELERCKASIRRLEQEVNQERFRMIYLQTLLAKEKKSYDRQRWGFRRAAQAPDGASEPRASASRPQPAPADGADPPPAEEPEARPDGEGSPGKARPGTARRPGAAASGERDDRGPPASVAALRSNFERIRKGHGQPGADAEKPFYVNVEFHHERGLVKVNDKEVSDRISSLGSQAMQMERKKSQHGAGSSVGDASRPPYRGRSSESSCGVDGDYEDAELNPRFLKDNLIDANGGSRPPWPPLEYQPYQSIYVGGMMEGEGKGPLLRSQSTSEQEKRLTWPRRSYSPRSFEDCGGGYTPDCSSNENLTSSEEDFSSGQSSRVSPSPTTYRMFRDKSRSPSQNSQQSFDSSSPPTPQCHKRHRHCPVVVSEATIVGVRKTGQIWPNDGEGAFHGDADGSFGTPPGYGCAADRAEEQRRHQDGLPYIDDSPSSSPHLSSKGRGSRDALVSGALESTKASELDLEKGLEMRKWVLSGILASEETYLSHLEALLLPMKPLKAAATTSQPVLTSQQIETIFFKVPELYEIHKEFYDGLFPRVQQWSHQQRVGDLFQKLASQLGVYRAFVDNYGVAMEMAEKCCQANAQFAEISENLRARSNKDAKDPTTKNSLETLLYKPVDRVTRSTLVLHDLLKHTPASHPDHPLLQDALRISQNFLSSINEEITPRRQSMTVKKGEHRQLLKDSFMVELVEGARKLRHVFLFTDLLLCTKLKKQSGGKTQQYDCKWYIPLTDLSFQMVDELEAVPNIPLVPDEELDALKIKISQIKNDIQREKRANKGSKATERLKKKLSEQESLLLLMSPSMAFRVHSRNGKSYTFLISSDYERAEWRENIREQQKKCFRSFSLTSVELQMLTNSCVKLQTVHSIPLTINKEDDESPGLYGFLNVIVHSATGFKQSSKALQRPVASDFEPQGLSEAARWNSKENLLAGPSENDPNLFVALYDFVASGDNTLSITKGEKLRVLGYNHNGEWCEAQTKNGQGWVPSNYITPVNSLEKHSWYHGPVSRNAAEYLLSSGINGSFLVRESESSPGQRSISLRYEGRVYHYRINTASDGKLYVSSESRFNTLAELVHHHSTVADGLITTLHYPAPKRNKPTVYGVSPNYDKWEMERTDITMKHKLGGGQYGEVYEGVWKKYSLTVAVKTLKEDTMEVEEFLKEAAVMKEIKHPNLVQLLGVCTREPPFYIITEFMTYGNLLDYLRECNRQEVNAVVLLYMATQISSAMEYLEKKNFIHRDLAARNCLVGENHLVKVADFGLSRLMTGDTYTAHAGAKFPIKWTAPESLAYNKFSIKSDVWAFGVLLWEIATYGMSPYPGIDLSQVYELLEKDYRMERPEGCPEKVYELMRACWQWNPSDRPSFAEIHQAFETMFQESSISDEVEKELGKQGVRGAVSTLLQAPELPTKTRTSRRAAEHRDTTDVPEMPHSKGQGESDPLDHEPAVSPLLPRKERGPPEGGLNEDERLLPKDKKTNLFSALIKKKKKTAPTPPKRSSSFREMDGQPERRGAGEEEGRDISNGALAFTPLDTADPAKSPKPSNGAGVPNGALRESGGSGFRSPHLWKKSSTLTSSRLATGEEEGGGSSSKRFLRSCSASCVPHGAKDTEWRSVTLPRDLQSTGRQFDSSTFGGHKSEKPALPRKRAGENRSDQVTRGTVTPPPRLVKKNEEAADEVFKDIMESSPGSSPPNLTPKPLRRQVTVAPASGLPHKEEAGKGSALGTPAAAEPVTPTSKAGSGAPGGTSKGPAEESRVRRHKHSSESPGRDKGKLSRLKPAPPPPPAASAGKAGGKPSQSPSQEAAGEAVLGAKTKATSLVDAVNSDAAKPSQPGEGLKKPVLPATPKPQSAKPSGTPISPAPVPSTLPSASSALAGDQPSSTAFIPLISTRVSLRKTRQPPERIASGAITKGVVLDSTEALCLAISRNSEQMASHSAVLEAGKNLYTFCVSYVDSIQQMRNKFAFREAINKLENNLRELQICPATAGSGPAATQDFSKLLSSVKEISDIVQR
c-ABL protein, sequence (P00519 whole entry): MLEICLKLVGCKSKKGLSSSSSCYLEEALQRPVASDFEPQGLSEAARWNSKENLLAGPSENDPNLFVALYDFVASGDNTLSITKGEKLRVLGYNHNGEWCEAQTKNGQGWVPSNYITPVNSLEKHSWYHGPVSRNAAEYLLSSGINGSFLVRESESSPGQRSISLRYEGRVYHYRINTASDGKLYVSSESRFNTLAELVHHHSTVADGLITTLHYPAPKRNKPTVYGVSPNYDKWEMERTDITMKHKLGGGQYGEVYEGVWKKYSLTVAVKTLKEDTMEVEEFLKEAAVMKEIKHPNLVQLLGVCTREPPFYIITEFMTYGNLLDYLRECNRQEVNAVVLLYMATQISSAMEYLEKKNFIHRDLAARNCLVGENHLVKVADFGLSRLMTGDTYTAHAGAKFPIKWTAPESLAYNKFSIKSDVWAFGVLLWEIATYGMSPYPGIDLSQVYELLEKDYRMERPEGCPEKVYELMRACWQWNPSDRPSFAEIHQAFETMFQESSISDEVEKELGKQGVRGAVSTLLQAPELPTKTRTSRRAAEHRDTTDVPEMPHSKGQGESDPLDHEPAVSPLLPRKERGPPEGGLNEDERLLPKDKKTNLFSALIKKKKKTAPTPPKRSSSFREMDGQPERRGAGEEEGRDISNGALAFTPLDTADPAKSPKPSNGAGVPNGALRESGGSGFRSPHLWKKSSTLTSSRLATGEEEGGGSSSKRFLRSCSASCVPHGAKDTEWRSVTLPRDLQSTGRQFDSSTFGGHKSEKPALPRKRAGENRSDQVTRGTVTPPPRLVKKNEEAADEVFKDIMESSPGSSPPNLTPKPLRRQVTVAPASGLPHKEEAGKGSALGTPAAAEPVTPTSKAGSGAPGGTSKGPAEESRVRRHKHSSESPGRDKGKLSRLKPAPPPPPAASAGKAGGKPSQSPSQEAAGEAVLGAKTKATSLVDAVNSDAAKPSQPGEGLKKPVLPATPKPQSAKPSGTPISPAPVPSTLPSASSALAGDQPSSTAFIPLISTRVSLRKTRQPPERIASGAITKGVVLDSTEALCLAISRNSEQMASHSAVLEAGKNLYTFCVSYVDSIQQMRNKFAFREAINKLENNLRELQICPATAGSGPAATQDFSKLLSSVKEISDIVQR

IC50 [1] [nM]	IC50 [2] [nM]	DC50 [4] [nM]	DC50 [5] [nM]	SMILES	IC50 [3] [nM]
16.5	> 10000	10 to 100	10 to 100	Cc1nc(Nc2ncc(C(=O)Nc3c(C)cccc3Cl)s2)cc(N2CCN(C(=O)CCCC(=O)Nc3cccc4c3C(=O)N(C3CCC(=O)NC3=O)C4=O)CC2)n1 (stereo not shown) [SIAIS184053, N-(2-chloro-6-methylphenyl)-2-((6-(4-(5-((2-(2,6-dioxopiperidin-3-yl)-1,3-dioxoisoindolin-4-yl)amino)-5-oxopentanoyl)piperazin-1-yl)-2-methylpyrimidin-4-yl)amino)thiazole-5-carboxamide]	> 10000
894	> 10000	10 to 100	10 to 100	COc1cc(Nc2c(C#N)cnc3cc(OCCCN4CCN(C(=O)CCCCCNc5cccc6c5C(=O)N(C5CCC(=O)NC5=O)C6=O)CC4)c(OC)cc23)c(Cl)cc1Cl (stereo not shown) [SIAIS151166, 4-((2,4-dichloro-5-methoxyphenyl)amino)-7-(3-(4-(6-((2-(2,6-dioxopiperidin-3-yl)-1,3-dioxoisoindolin-4-yl)amino)hexanoyl)piperazin-1-yl)propoxy)-6-methoxyquinoline-3-carbonitrile]	> 10000
3130	> 10000	10 to 100	10 to 100	COc1cc(Nc2c(C#N)cnc3cc(OCCCN4CCN(C(=O)CCOCCOCCNc5cccc6c5C(=O)N(C5CCC(=O)NC5=O)C6=O)CC4)c(OC)cc23)c(Cl)cc1Cl (stereo not shown) [SIAIS151158, 4-((2,4-dichloro-5-methoxyphenyl)amino)-7-(3-(4-(3-(2-(2-((2-(2,6-dioxopiperidin-3-yl)-1,3-dioxoisoindolin-4-yl)amino)ethoxy)ethoxy)propanoyl)piperazin-1-yl)propoxy)-6-methoxyquinoline-3-carbonitrile]	> 10000
4260	> 10000	10 to 100	10 to 100	COc1cc(Nc2c(C#N)cnc3cc(OCCCN4CCN(C(=O)CCOCCOCCOCCNc5cccc6c5C(=O)N(C5CCC(=O)NC5=O)C6=O)CC4)c(OC)cc23)c(Cl)cc1Cl (stereo not shown) [SIAIS151159, 4-((2,4-dichloro-5-methoxyphenyl)amino)-7-(3-(4-(3-(2-(2-(2-((2-(2,6-dioxopiperidin-3-yl)-1,3-dioxoisoindolin-4-yl)amino)ethoxy)ethoxy)ethoxy)propanoyl)piperazin-1-yl)propoxy)-6-methoxyquinoline-3-carbonitrile]	> 10000
0.03	> 10000	1 to 10	1 to 10	Cc1nc(Nc2ncc(C(=O)Nc3c(C)cccc3Cl)s2)cc(N2CCN(C(=O)CCCCCNc3cccc4c3C(=O)N(C3CCC(=O)NC3=O)C4=O)CC2)n1 (stereo not shown) [SIAIS151075, N-(2-chloro-6-methylphenyl)-2-((6-(4-(6-((2-(2,6-dioxopiperidin-3-yl)-1,3-dioxoisoindolin-4-yl)amino)hexanoyl)piperazin-1-yl)-2-methylpyrimidin-4-yl)amino)thiazole-5-carboxamide]	> 10000
8.05	> 10000	10 to 100	1 to 10	Cc1nc(Nc2ncc(C(=O)Nc3c(C)cccc3Cl)s2)cc(N2CCN(C(=O)CCOCCOCCNc3cccc4c3C(=O)N(C3CCC(=O)NC3=O)C4=O)CC2)n1 (stereo not shown) [SIAIS151064, N-(2-chloro-6-methylphenyl)-2-((6-(4-(3-(2-(2-((2-(2,6-dioxopiperidin-3-yl)-1,3-dioxoisoindolin-4-yl)amino)ethoxy)ethoxy)propanoyl)piperazin-1-yl)-2-methylpyrimidin-4-yl)amino)thiazole-5-carboxamide]	> 10000
4.2	> 10000	10 to 100	1 to 10	Cc1nc(Nc2ncc(C(=O)Nc3c(C)cccc3Cl)s2)cc(N2CCN(C(=O)CCCCNc3cccc4c3CN(C3CCC(=O)NC3=O)C4=O)CC2)n1 (stereo not shown) [SIAIS184052, N-(2-chloro-6-methylphenyl)-2-((6-(4-(5-((2-(2,6-dioxopiperidin-3-yl)-1-oxoisoindolin-4-yl)amino)pentanoyl)piperazin-1-yl)-2-methylpyrimidin-4-yl)amino)thiazole-5-carboxamide]	> 10000
37.6	> 10000	10 to 100	1 to 10	Cc1nc(Nc2ncc(C(=O)Nc3c(C)cccc3Cl)s2)cc(N2CCN(C(=O)CCCCCC(=O)N[C@H](C(=O)N3C[C@H](O)C[C@H]3C(=O)NCc3ccc(-c4scnc4C)cc3)C(C)(C)C)CC2)n1 [SIAIS151177, N-(2-chloro-6-methylphenyl)-2-((6-(4-(7-(((S)-1-((2S,4R)-4-hydroxy-2-((4-(4-methylthiazol-5-yl)benzyl)carbamoyl)pyrrolidin-1-yl)-3,3-dimethyl-1-oxobutan-2-yl)amino)-7-oxoheptanoyl)piperazin-1-yl)-2-methylpyrimidin-4-yl)amino)thiazole-5-carboxamide]	> 10000
5.5	> 10000	1 to 10	1 to 10	Cc1nc(Nc2ncc(C(=O)Nc3c(C)cccc3Cl)s2)cc(N2CCN(C(=O)CCCNc3cccc4c3C(=O)N(C3CCC(=O)NC3=O)C4=O)CC2)n1 (stereo not shown) [SIAIS151070, N-(2-chloro-6-methylphenyl)-2-((6-(4-(4-((2-(2,6-dioxopiperidin-3-yl)-1,3-dioxoisoindolin-4-yl)amino)butanoyl)piperazin-1-yl)-2-methylpyrimidin-4-yl)amino)thiazole-5-carboxamide]	> 10000
7	> 10000	1 to 10	1 to 10	Cc1nc(Nc2ncc(C(=O)Nc3c(C)cccc3Cl)s2)cc(N2CCN(C(=O)COc3cccc4c3C(=O)N(C3CCC(=O)NC3=O)C4=O)CC2)n1 (stereo not shown) [SIAIS184128, N-(2-chloro-6-methylphenyl)-2-((6-(4-(2-((2-(2,6-dioxopiperidin-3-yl)-1,3-dioxoisoindolin-4-yl)oxy)acetyl)piperazin-1-yl)-2-methylpyrimidin-4-yl)amino)thiazole-5-carboxamide]	> 10000
12.2	> 10000	10 to 100	10 to 100	Cc1nc(Nc2ncc(C(=O)Nc3c(C)cccc3Cl)s2)cc(N2CCN(C(=O)CC(=O)Nc3cccc4c3CN(C3CCC(=O)NC3=O)C4=O)CC2)n1 (stereo not shown) [SIAIS164108, N-(2-chloro-6-methylphenyl)-2-((6-(4-(3-((2-(2,6-dioxopiperidin-3-yl)-1-oxoisoindolin-4-yl)amino)-3-oxopropanoyl)piperazin-1-yl)-2-methylpyrimidin-4-yl)amino)thiazole-5-carboxamide]	> 10000
2.84	> 10000	10 to 100	10 to 100	Cc1nc(Nc2ncc(C(=O)Nc3c(C)cccc3Cl)s2)cc(N2CCN(C(=O)CCc3cccc4c3C(=O)N(C3CCC(=O)NC3=O)C4=O)CC2)n1 (stereo not shown) [SIAIS172150, N-(2-chloro-6-methylphenyl)-2-((6-(4-(3-(2-(2,6-dioxopiperidin-3-yl)-1,3-dioxoisoindolin-4-yl)propanoyl)piperazin-1-yl)-2-methylpyrimidin-4-yl)amino)thiazole-5-carboxamide]	> 10000
2.7	276	1 to 10	1 to 10	Cc1nc(Nc2ncc(C(=O)Nc3c(C)cccc3Cl)s2)cc(N2CCN(C(=O)CCOCCNc3cccc4c3C(=O)N(C3CCC(=O)NC3=O)C4=O)CC2)n1 (stereo not shown) [SIAIS151063, N-(2-chloro-6-methylphenyl)-2-((6-(4-(3-(2-((2-(2,6-dioxopiperidin-3-yl)-1,3-dioxoisoindolin-4-yl)amino)ethoxy)propanoyl)piperazin-1-yl)-2-methylpyrimidin-4-yl)amino)thiazole-5-carboxamide]	972
7.08	> 10000	100 to 1000	100 to 1000	Cc1nc(Nc2ncc(C(=O)Nc3c(C)cccc3Cl)s2)cc(N2CCN(C(=O)CCC(=O)Nc3cccc4c3CN(C3CCC(=O)NC3=O)C4=O)CC2)n1 (stereo not shown) [SIAIS164109, N-(2-chloro-6-methylphenyl)-2-((6-(4-(4-((2-(2,6-dioxopiperidin-3-yl)-1-oxoisoindolin-4-yl)amino)-4-oxobutanoyl)piperazin-1-yl)-2-methylpyrimidin-4-yl)amino)thiazole-5-carboxamide]	> 10000
